Consider one molecule from PMC5218480 (PLoS ONE, 2017).

The experiment relates to MV-4-11 cells. Put plainly: Gene expression microarray analysis (Affymetrix PrimeView) and GSEA. Type of experiment: cell-based, human. Further details: RFU PODN (11730768_x_at) / Fold change /veh PODN (11730768_x_at) / RFU LINC00158 (11744669_a_at) / Fold change /veh LINC00158 (11744669_a_at) / RFU DUSP10 (11751237_a_at) / Fold change /veh DUSP10 (11751237_a_at) / RFU ID3 (11757404_x_at) / Fold change /veh ID3 (11757404_x_at) / RFU PLEKHG5 (11737974_s_at) / Fold change /veh PLEKHG5 (11737974_s_at) / RFU LRRC4B (11730491_at) / Fold change /veh LRRC4B (11730491_at) / RFU GIMAP4 (11747438_a_at) / Fold change /veh GIMAP4 (11747438_a_at) / RFU KRT8 (11758183_x_at) / Fold change /veh KRT8 (11758183_x_at) / RFU CNN1 (11734310_a_at) / Fold change /veh CNN1 (11734310_a_at) / RFU VPS37D (11726825_at) / Fold change /veh VPS37D (11726825_at) / RFU C10orf10 (11716522_x_at) / Fold change /veh C10orf10 (11716522_x_at) / RFU KIR2DL2 /// KIR2DL4 /// KIR2DL5A /// KIR2DL5B /// KIR2DS1 /// KIR2DS2 /// KIR2DS3 /// KIR2DS4 /// KIR3DL3 /// KIR3DL3 /// KIR3DS1 (11738374_at) / Fold change /veh KIR2DL2 /// KIR2DL4 /// KIR2DL5A /// KIR2DL5B /// KIR2DS1 /// KIR2DS2 /// KIR2DS3 /// KIR2DS4 /// KIR3DL3 /// KIR3DL3 /// KIR3DS1 (11738374_at) / RFU C1QL1 (11718748_at) / Fold change /veh C1QL1 (11718748_at) / RFU TMPRSS4 (11747572_a_at) / Fold change /veh TMPRSS4 (11747572_a_at) / RFU HAMP (11756126_x_at) / Fold change /veh HAMP (11756126_x_at) / RFU RNFT2 (11725882_a_at) / Fold change /veh RNFT2 (11725882_a_at) / RFU NR4A2 (11747474_a_at) / Fold change /veh NR4A2 (11747474_a_at) / RFU ABCC12 (11746883_a_at) / Fold change /veh ABCC12 (11746883_a_at) / RFU TMEM136 (11760407_x_at) / Fold change /veh TMEM136 (11760407_x_at) / RFU CLDN22 /// WWC2 (11732394_at) / Fold change /veh CLDN22 /// WWC2 (11732394_at) / RFU HLA-DPB1 (11760878_x_at) / Fold change /veh HLA-DPB1 (11760878_x_at) / RFU SPINT1 (11716480_a_at) / Fold change /veh SPINT1 (11716480_a_at) / RFU GAP43 (11754022_s_at) / Fold change /veh GAP43 (11754022_s_at) / RFU A4GNT (11735810_at) / Fold change /veh A4GNT (11735810_at) / RFU PRB3 (11715151_x_at) / Fold change /veh PRB3 (11715151_x_at) / RFU TUBB4B (11761932_at) / Fold change /veh TUBB4B (11761932_at) / RFU CAPN14 (11732068_a_at) / Fold change /veh CAPN14 (11732068_a_at) / RFU TMCC2 (11721928_a_at) / Fold change /veh TMCC2 (11721928_a_at) / RFU IRGQ (11745062_a_at) / Fold change /veh IRGQ (11745062_a_at) / RFU FAM174B (11720279_a_at) / Fold change /veh FAM174B (11720279_a_at) / RFU TMPRSS4 (11748680_a_at) / Fold change /veh TMPRSS4 (11748680_a_at) / RFU FAM212B (11763350_a_at) / Fold change /veh FAM212B (11763350_a_at) / RFU PLEKHG5 (11743358_a_at) / Fold change /veh PLEKHG5 (11743358_a_at) / RFU ZSCAN30 (11745921_a_at) / Fold change /veh ZSCAN30 (11745921_a_at) / RFU CMKLR1 (11741424_a_at) / Fold change /veh CMKLR1 (11741424_a_at) / RFU LOC101060620 /// MAPK8IP1 (11723275_at) / Fold change /veh LOC101060620 /// MAPK8IP1 (11723275_at) / RFU SPTSSB (11747773_x_at) / Fold change /veh SPTSSB (11747773_x_at) / RFU PRSS12 (11739890_at) / Fold change /veh PRSS12 (11739890_at) / RFU BIN1 (11741810_x_at) / Fold change /veh BIN1 (11741810_x_at) / RFU WNT11 (11732464_a_at) / Fold change /veh WNT11 (11732464_a_at) / RFU C10orf10 (11716521_a_at) / Fold change /veh C10orf10 (11716521_a_at) / RFU C5orf56 (11738089_at) / Fold change /veh C5orf56 (11738089_at) / RFU CYB561 (11721691_x_at) / Fold change /veh CYB561 (11721691_x_at) / RFU ANKRD19P (11752326_a_at) / Fold change /veh ANKRD19P (11752326_a_at) / RFU OR2T12 /// OR2T33 /// OR2T8 (11738714_s_at) / Fold change /veh OR2T12 /// OR2T33 /// OR2T8 (11738714_s_at) / RFU VCAN (11748164_a_at) / Fold change /veh VCAN (11748164_a_at) / RFU JSRP1 (11732532_at) / Fold change /veh JSRP1 (11732532_at) / RFU KRTAP10-11 (11738290_x_at) / Fold change /veh KRTAP10-11 (11738290_x_at) / RFU MYO3A (11730013_a_at) / Fold change /veh MYO3A (11730013_a_at) / RFU EBF3 (11725865_a_at) / Fold change /veh EBF3 (11725865_a_at) / RFU CAMK2N1 (11719241_x_at) / Fold change /veh CAMK2N1 (11719241_x_at) / RFU C5orf56 (11738088_a_at) / Fold change /veh C5orf56 (11738088_a_at) / RFU OLFML3 (11715873_a_at) / Fold change /veh OLFML3 (11715873_a_at) / RFU LOC100653217 /// NTM (11731650_a_at) / Fold change /veh LOC100653217 /// NTM (11731650_a_at) / RFU MAPK11 (11762145_a_at) / Fold change /veh MAPK11 (11762145_a_at) / RFU FIZ1 (11724087_x_at) / Fold change /veh FIZ1 (11724087_x_at) / RFU OASL (11726364_x_at) / Fold change /veh OASL (11726364_x_at) / RFU SOX15 (11748057_x_at) / Fold change /veh SOX15 (11748057_x_at) / RFU CD79A (11719716_a_at) / Fold change /veh CD79A (11719716_a_at) / RFU HIST1H1D (11736915_at) / Fold change /veh HIST1H1D (11736915_at) / RFU CASKIN2 (11723855_a_at) / Fold change /veh CASKIN2 (11723855_a_at) / RFU LOC730098 (11760151_x_at) / Fold change /veh LOC730098 (11760151_x_at) / RFU OR4N2 (11742367_at) / Fold change /veh OR4N2 (11742367_at) / RFU PRRT2 (11749266_a_at) / Fold change /veh PRRT2 (11749266_a_at) / RFU SNX32 (11753110_a_at) / Fold change /veh SNX32 (11753110_a_at) / RFU CDHR5 (11726645_a_at) / Fold change /veh CDHR5 (11726645_a_at) / RFU RCAN1 (11760418_a_at) / Fold change /veh RCAN1 (11760418_a_at) / RFU FAM167A (11723789_a_at) / Fold change /veh FAM167A (11723789_a_at) / RFU FAM26E (11764081_at) / Fold change /veh FAM26E (11764081_at) / RFU ISYNA1 (11749810_s_at) / Fold change /veh ISYNA1 (11749810_s_at) / RFU ACY1 (11761880_at) / Fold change /veh ACY1 (11761880_at) / RFU 11764098_at / Fold change /veh 11764098_at / RFU SAMD14 (11745864_x_at) / Fold change /veh SAMD14 (11745864_x_at) / RFU NPB (11741838_a_at) / Fold change /veh NPB (11741838_a_at) / RFU TMPRSS6 (11731388_a_at) / Fold change /veh TMPRSS6 (11731388_a_at) / RFU KRTAP10-2 (11738614_at) / Fold change /veh KRTAP10-2 (11738614_at) / RFU ARHGAP8 /// PRR5-ARHGAP8 (11727945_x_at) / Fold change /veh ARHGAP8 /// PRR5-ARHGAP8 (11727945_x_at) / RFU KRTAP5-7 /// NADSYN1 (11734609_at) / Fold change /veh KRTAP5-7 /// NADSYN1 (11734609_at) / RFU RASL12 (11751679_a_at) / Fold change /veh RASL12 (11751679_a_at) / RFU CDKN2B (11736163_a_at) / Fold change /veh CDKN2B (11736163_a_at) / RFU PRF1 (11729649_at) / Fold change /veh PRF1 (11729649_at) / RFU, ZNF638 /// ZNF638-IT1 / Fold change vs veh, ZNF638 /// ZNF638-IT1 / RFU, PANK3 / Fold change vs veh, PANK3 / RFU, SH3YL1 / Fold change vs veh, SH3YL1 / RFU, ZEB2 / Fold change vs veh, ZEB2 / RFU, NRIP1 / Fold change vs veh, NRIP1 / RFU, PTTG1IP / Fold change vs veh, PTTG1IP / RFU, CAPN2 / Fold change vs veh, CAPN2 / RFU, MED14 / Fold change vs veh, MED14 / RFU, SNORA58 / Fold change vs veh, SNORA58 / RFU, C1orf63 / Fold change vs veh, C1orf63 / RFU, LRRFIP1 / Fold change vs veh, LRRFIP1 / RFU, NDUFAF7 / Fold change vs veh, NDUFAF7 / RFU, SLC12A2 / Fold change vs veh, SLC12A2 / RFU, IBTK / Fold change vs veh, IBTK / RFU, ESF1 / Fold change vs veh, ESF1 / Fold change vs veh, TMEM50B / RFU, TAOK1 / Fold change vs veh, TAOK1 / RFU, ACBD3 / Fold change vs veh, ACBD3 / RFU, TMA16 / Fold change vs veh, TMA16 / RFU, RWDD3 / Fold change vs veh, RWDD3 / RFU, BCAT1 / Fold change vs veh, BCAT1 / RFU, EDEM3 / Fold change vs veh, EDEM3 / RFU, TMEM33 / Fold change vs veh, TMEM33 / RFU, WDR75 / Fold change vs veh, WDR75 / RFU, AHCTF1 / Fold change vs veh, AHCTF1 / RFU, TFRC / Fold change vs veh, TFRC / RFU, ZDHHC17 / Fold change vs veh, ZDHHC17 / RFU, NOM1 / Fold change vs veh, NOM1 / RFU, ARL8B / Fold change vs veh, ARL8B / RFU, ZBTB11 / Fold change vs veh, ZBTB11 / RFU, TAMM41 / Fold change vs veh, TAMM41 / RFU, KIAA1704 /// LOC100996395 / Fold change vs veh, KIAA1704 /// LOC100996395 / RFU, ING1 / Fold change vs veh, ING1 / RFU, TRMT61B / Fold change vs veh, TRMT61B / RFU, FUBP3 / Fold change vs veh, FUBP3 / RFU, TP53 / Fold change vs veh, TP53 / RFU, TNKS2 / Fold change vs veh, TNKS2 / RFU, ZFP14 / Fold change vs veh, ZFP14 / RFU, ACTR2 / Fold change vs veh, ACTR2 / RFU, PPP3R1 / Fold change vs veh, PPP3R1 / RFU, PIK3R1 / Fold change vs veh, PIK3R1 / RFU, HNRNPA1 / Fold change vs veh, HNRNPA1 / RFU, RNF170 / Fold change vs veh, RNF170 / RFU, ZNF28 / Fold change vs veh, ZNF28 / RFU, RNGTT / Fold change vs veh, RNGTT / RFU, OGT / Fold change vs veh, OGT / RFU, BRD1 / Fold change vs veh, BRD1 / RFU, MARS / Fold change vs veh, MARS / RFU, ZNF655 / Fold change vs veh, ZNF655 / RFU, FAHD1 / Fold change vs veh, FAHD1 / RFU, BDP1 / Fold change vs veh, BDP1 / RFU, LRRCC1 / Fold change vs veh, LRRCC1 / RFU, ARID1A / Fold change vs veh, ARID1A / RFU, ZNF146 / Fold change vs veh, ZNF146 / RFU, ZNF330 / Fold change vs veh, ZNF330 / RFU, GPN3 / Fold change vs veh, GPN3 / RFU, C9orf123 / Fold change vs veh, C9orf123 / RFU, N4BP2L2 / Fold change vs veh, N4BP2L2 / RFU, ARFIP1 / Fold change vs veh, ARFIP1 / RFU, FAM179B / Fold change vs veh, FAM179B / RFU, BCL10 / Fold change vs veh, BCL10 / RFU, UHRF1BP1L / Fold change vs veh, UHRF1BP1L / RFU, BET1 / Fold change vs veh, BET1 / RFU, CNOT2 / Fold change vs veh, CNOT2 / RFU, ZNF268 / Fold change vs veh, ZNF268 / Fold change vs veh, ZNF507 / RFU, DGCR2 / Fold change vs veh, DGCR2 / RFU, WDSUB1 / Fold change vs veh, WDSUB1 / Fold change vs veh, HSP90B1 /// MIR3652 / RFU, ADSS / Fold change vs veh, ADSS / RFU, GK / Fold change vs veh, GK / RFU, ZNF148 / Fold change vs veh, ZNF148 / RFU, TAF9 / Fold change vs veh, TAF9 / RFU, SLC1A5 / Fold change vs veh, SLC1A5 / RFU, SLMO2 / Fold change vs veh, SLMO2 / RFU, ABCC4 / Fold change vs veh, ABCC4 / RFU, LOC101060439 /// RAP1B / Fold change vs veh, LOC101060439 /// RAP1B / RFU, RFX7 / Fold change vs veh, RFX7 / RFU, GTPBP10 / Fold change vs veh, GTPBP10 / RFU, CNEP1R1 / Fold change vs veh, CNEP1R1 / RFU, BIVM-ERCC5 /// ERCC5 / Fold change vs veh, BIVM-ERCC5 /// ERCC5 / RFU, ILF3 / Fold change vs veh, ILF3 / RFU 11762660_at / Fold change /veh 11762660_at / RFU VCAN (11757783_s_at) / Fold change /veh VCAN (11757783_s_at) / RFU DDX43 (11728927_at) / Fold change /veh DDX43 (11728927_at) / RFU KRT8 (11758188_x_at) / Fold change /veh KRT8 (11758188_x_at) / RFU NKD1 (11759106_at) / Fold change /veh NKD1 (11759106_at) / RFU SRD5A1 (11742802_a_at) / Fold change /veh SRD5A1 (11742802_a_at) / RFU TPSAB1 /// TPSB2 (11721975_s_at) / Fold change /veh TPSAB1 /// TPSB2 (11721975_s_at) / RFU GSTM3 (11746129_a_at) / Fold change /veh GSTM3 (11746129_a_at) / RFU IL23R (11737362_x_at) / Fold change /veh IL23R (11737362_x_at) / RFU TMEM51 (11727254_a_at) / Fold change /veh TMEM51 (11727254_a_at) / RFU PIWIL2 (11732686_x_at) / Fold change /veh PIWIL2 (11732686_x_at) / RFU ORM1 (11744905_x_at) / Fold change /veh ORM1 (11744905_x_at) / RFU CCDC152 (11743942_at) / Fold change /veh CCDC152 (11743942_at) / RFU ECM1 (11717891_a_at) / Fold change /veh ECM1 (11717891_a_at) / RFU IL23R (11748794_a_at) / Fold change /veh IL23R (11748794_a_at) / RFU TNFAIP8L3 (11732012_x_at) / Fold change /veh TNFAIP8L3 (11732012_x_at) / RFU MBOAT4 (11741988_at) / Fold change /veh MBOAT4 (11741988_at) / RFU 11764193_at / Fold change /veh 11764193_at / RFU TMEM53 (11763286_at) / Fold change /veh TMEM53 (11763286_at) / RFU MAGEB2 (11727129_at) / Fold change /veh MAGEB2 (11727129_at) / RFU TMEM200A (11744735_a_at) / Fold change /veh TMEM200A (11744735_a_at) / RFU CCDC152 (11751479_a_at) / Fold change /veh CCDC152 (11751479_a_at) / RFU FAM211A (11726209_a_at) / Fold change /veh FAM211A (11726209_a_at) / RFU RGS16 (11746705_a_at) / Fold change /veh RGS16 (11746705_a_at) / RFU VCAN (11755009_s_at) / Fold change /veh VCAN (11755009_s_at) / RFU RHOB (11743442_s_at) / Fold change /veh RHOB (11743442_s_at) / RFU RGS16 (11720943_a_at) / Fold change /veh RGS16 (11720943_a_at) / RFU RGS16 (11720944_at) / Fold change /veh RGS16 (11720944_at) / RFU, VPS4B / Fold change vs veh, VPS4B / RFU, CREB1 / Fold change vs veh, CREB1 / RFU, DNAJC13 / Fold change vs veh, DNAJC13 / RFU, GNAQ / Fold change vs veh, GNAQ / RFU, CDK5R1 / Fold change vs veh, CDK5R1 / RFU, ZRANB3 / Fold change vs veh, ZRANB3 / RFU, CUL4A / Fold change vs veh, CUL4A / RFU, CCNY / Fold change vs veh, CCNY / RFU, UFL1 / Fold change vs veh, UFL1 / RFU, COG3 / Fold change vs veh, COG3 / RFU, DIAPH2 / Fold change vs veh, DIAPH2 / RFU, SKA2 / Fold change vs veh, SKA2 / RFU, AFF3 / Fold change vs veh, AFF3 / RFU, LMF1 / Fold change vs veh, LMF1 / RFU, IPO11 / Fold change vs veh, IPO11 / RFU, DFFB / Fold change vs veh, DFFB / RFU, FOXP1 / Fold change vs veh, FOXP1 / RFU, CARD8 / Fold change vs veh, CARD8 / RFU, STRN3 / Fold change vs veh, STRN3 / RFU, ADK / Fold change vs veh, ADK / RFU, RASSF2 / Fold change vs veh, RASSF2 / RFU, WIPF1 / Fold change vs veh, WIPF1 / RFU, LARP1B / Fold change vs veh, LARP1B / RFU, RASA1 / Fold change vs veh, RASA1 / RFU, RB1 / Fold change vs veh, RB1 / RFU, PPFIA1 / Fold change vs veh, PPFIA1 / RFU, MAT2A / Fold change vs veh, MAT2A / RFU, CCT5 / Fold change vs veh, CCT5 / RFU, WDR92 / Fold change vs veh, WDR92 / RFU, CUX1 / Fold change vs veh, CUX1 / RFU, TTC7A / Fold change vs veh, TTC7A / RFU, TMEM135 / Fold change vs veh, TMEM135 / RFU, DEPTOR / Fold change vs veh, DEPTOR / RFU, CPM / Fold change vs veh, CPM / RFU, DNAJB6 / Fold change vs veh, DNAJB6 / RFU, CACNA2D3 / Fold change vs veh, CACNA2D3 / RFU, DTX4 / Fold change vs veh, DTX4 / RFU, TFCP2 / Fold change vs veh, TFCP2 / RFU, GMCL1 /// GMCL1P1 / Fold change vs veh, GMCL1 /// GMCL1P1 / RFU, AEBP2 / Fold change vs veh, AEBP2 / RFU, SNHG1 /// SNORD22 /// SNORD25 /// SNORD26 /// SNORD27 /// SNORD28 /// SNORD29 /// SNORD31 / Fold change vs veh, SNHG1 /// SNORD22 /// SNORD25 /// SNORD26 /// SNORD27 /// SNORD28 /// SNORD29 /// SNORD31 / Fold change (Aza/veh), C12orf56 (ProbeSet 11735607_a_at) / Fold change (ACY-1035/veh), C12orf56 (ProbeSet 11735607_a_at) / Fold change (Aza/veh), FGFR1OP (ProbeSet 11751329_s_at) / Fold change (ACY-1035/veh), FGFR1OP (ProbeSet 11751329_s_at) / Fold change (Aza/veh), VPS36 (ProbeSet 11739960_a_at) / Fold change (ACY-1035/veh), VPS36 (ProbeSet 11739960_a_at) / RFU SYPL1 (11715823_x_at) / Fold change /veh SYPL1 (11715823_x_at) / RFU IGFBP7 (11715501_s_at) / Fold change /veh IGFBP7 (11715501_s_at) / RFU REEP3 (11722064_at) / Fold change /veh REEP3 (11722064_at) / RFU IGLL1 (11728026_x_at) / Fold change /veh IGLL1 (11728026_x_at): dose or concentration left out as unconfirmed. Conditions: MV-4-11 cells, 48 hours.

Regarding `Nc1ccc(-c2cccs2)cc1NC(=O)c1ccc2c(c1)cc(C1CC1)n2CCN1CCOCC1` [ACY-1035], the “Fold change /veh TMPRSS4 (11747572_a_at)” value is 1.09.
